One assay has as its target DNA-PK(h) (Homo sapiens, UniProt P78527). Description: Evaluation of inhibitory activity against DNA-PK (HTRF kinase assay, GST-cMyc-p53 substrate). Type of assay: biochemical. The settings on record: for inhibition at 0.01 µM: read-out: EXP_VALUE(% Inhibition) DNA-PK(h) 0.01 μM; for inhibition at 0.1 µM: read-out: EXP_VALUE(% Inhibition) DNA-PK(h) 0.1 μM. The procedure, abridged:
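p53 Ser15 phosphorylation by human DNA-PK was measured by time-resolved FRET ratio (665/620 nm ×10000) using Eu-labelled anti-phospho-Ser15 and d2 anti-GST antibodies. Substrate GST-cMyc-p53 at 50 μM; Mg/ATP-initiated, 30 min at room temperature, EDTA stop.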
Background: Time-resolved FRET reads energy transfer from a long-lived donor to a nearby acceptor.

Assay [1] addresses PI3K-δ (PI3K(p1108/p857) (h)) (Homo sapiens, UniProt O00329). Description: Evaluation of inhibitory activity against PI3K-δ (HTRF kinase assay). Type of assay: biochemical. As to conditions: for inhibition at 0.01 µM: read-out: EXP_VALUE(% Inhibition) PI3K-δ 0.01 μM; for inhibition at 0.1 µM: read-out: EXP_VALUE(% Inhibition) PI3K-δ 0.1 μM. In short, it runs like this:
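HTRF read-out (665/620 nm ratio ×10000) used Eu-labelled anti-GST, GST-tagged GRP1 PH domain and streptavidin-allophycocyanin after EDTA/PIP3 stop.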

Read-outs that look alike come from different tables or passages of the source.

Sequence of PI3K-δ (PI3K(p1108/p857) (h)) (O00329 whole entry, the tested form may be a part): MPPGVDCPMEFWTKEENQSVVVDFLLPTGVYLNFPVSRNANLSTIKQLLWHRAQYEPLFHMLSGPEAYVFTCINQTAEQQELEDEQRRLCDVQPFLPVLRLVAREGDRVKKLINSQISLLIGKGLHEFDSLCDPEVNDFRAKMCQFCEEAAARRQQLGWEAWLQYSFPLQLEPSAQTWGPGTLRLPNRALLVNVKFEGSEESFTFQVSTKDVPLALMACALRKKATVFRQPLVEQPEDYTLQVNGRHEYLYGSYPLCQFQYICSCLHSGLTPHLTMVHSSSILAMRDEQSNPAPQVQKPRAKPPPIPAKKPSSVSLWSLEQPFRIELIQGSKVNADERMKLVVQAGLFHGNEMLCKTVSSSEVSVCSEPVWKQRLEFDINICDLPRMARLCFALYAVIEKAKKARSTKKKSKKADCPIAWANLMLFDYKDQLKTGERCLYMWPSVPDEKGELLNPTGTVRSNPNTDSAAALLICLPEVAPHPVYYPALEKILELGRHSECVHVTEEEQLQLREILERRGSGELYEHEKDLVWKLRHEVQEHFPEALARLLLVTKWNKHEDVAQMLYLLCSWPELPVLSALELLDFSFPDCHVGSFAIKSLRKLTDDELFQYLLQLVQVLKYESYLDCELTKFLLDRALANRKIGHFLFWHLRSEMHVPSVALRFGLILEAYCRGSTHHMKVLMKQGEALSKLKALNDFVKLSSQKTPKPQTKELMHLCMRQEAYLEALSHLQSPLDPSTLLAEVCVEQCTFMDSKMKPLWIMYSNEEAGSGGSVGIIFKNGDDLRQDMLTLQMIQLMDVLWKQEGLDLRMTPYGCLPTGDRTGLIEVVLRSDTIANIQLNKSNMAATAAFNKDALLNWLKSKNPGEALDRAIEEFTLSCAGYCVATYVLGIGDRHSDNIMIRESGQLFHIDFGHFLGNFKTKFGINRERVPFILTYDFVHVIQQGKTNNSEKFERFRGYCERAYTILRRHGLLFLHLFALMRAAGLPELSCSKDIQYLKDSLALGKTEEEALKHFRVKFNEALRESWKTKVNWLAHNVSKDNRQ
Sequence of PI3K-δ (PI3K(p1108/p857) (h)) (P27986 whole entry partner, the tested form may be a part): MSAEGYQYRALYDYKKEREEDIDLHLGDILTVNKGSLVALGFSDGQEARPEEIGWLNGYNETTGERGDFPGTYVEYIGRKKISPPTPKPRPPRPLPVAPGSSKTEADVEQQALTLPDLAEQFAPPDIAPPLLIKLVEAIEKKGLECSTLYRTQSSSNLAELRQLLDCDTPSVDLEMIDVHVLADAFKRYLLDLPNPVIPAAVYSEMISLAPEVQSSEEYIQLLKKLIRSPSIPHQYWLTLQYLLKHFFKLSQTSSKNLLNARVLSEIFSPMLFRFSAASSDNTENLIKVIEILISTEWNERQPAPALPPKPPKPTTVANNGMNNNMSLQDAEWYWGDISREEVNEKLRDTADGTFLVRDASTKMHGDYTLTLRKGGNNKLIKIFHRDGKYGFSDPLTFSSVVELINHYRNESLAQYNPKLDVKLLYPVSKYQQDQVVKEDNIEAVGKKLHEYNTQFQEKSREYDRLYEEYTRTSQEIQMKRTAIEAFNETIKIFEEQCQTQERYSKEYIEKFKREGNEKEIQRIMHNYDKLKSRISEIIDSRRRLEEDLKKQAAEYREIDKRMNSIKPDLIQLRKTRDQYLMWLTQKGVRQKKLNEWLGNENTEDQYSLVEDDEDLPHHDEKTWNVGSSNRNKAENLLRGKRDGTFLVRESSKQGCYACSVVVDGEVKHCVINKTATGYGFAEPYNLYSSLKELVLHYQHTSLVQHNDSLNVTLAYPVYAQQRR

Consider `C[C@H](Nc1ncnc2[nH]ccc(=O)c12)c1c(Cl)c2cccc(C(=O)N3CCOCC3)c2c(=O)n1-c1ccccc1` [Example 286, (S)-4-((1-(4-chloro-8-(morpholine-4-carbonyl)-1-oxo-2-phenyl-1,2-dihydroisoquinolin-3-yl)ethyl)amino)pyrido[2,3-d]pyrimidin-5(8H)-one], for which the inhibition at 0.01 µM worked out at 23% on DNA-PK(h) (compound concentration 0.01 μM) and 52% in assay [1] (compound concentration 0.01 μM).
As for `C[C@H](Nc1ncnc2[nH]ccc(=O)c12)c1c(Cl)c2cccc(S)c2c(=O)n1-c1ccccc1` [Example 427, (S)-4-((1-(4-chloro-8-mercapto-1-oxo-2-phenyl-1,2-dihydroisoquinolin-3-yl)ethyl)amino)pyrido[2,3-d]pyrimidin-5(8H)-one], the inhibition at 0.1 µM at DNA-PK(h) (compound at 0.1 μM) worked out at 7%; in assay [1] (compound at 0.1 μM) it was 38%.
Regarding `COCCOc1cccc2c(Cl)c([C@H](C)Nc3ncnc4[nH]ccc(=O)c34)n(-c3ccccc3)c(=O)c12` [Example 363, (S)-4-((1-(4-chloro-8-(2-methoxyethoxy)-1-oxo-2-phenyl-1,2-dihydroisoquinolin-3-yl)ethyl)amino)pyrido[2,3-d]pyrimidin-5(8H)-one], the inhibition at 0.01 µM at DNA-PK(h) (compound concentration 0.01 μM) worked out at 35%; in assay [1] (compound concentration 0.01 μM), 26%. In addition, the inhibition at 0.1 µM on DNA-PK(h) (compound concentration 0.1 μM) came to 80%; in assay [1] (compound concentration 0.1 μM) it was 76%.
For the compound `C[C@H](Nc1ncnc2[nH]ccc(=O)c12)c1c(Cl)c2cccc(C3=NC(C)(C)CO3)c2c(=O)n1-c1ccccc1` [Example 289, (S)-4-((1-(4-chloro-8-(4,4-dimethyl-4,5-dihydrooxazol-2-yl)-1-oxo-2-phenyl-1,2-dihydroisoquinolin-3-yl)ethyl)amino)pyrido[2,3-d]pyrimidin-5(8H)-one], the inhibition at 0.01 µM turned out to be 27% on DNA-PK(h) (compound concentration 0.01 μM) and 10% in assay [1] (compound concentration 0.01 μM).
Turning to `COc1ccc(-c2cccc3c(Cl)c([C@H](C)Nc4ncnc5[nH]ccc(=O)c45)n(-c4ccccc4)c(=O)c23)cn1` [Example 133, (S)-4-((1-(4-chloro-8-(6-methoxypyridin-3-yl)-1-oxo-2-phenyl-1,2-dihydroisoquinolin-3-yl)ethyl)amino)pyrido[2,3-d]pyrimidin-5(8H)-one], the inhibition at 0.01 µM amounted to 79% on DNA-PK(h) (compound concentration 0.01 μM) and 78% in assay [1] (compound concentration 0.01 μM). Also, the inhibition at 0.1 µM on DNA-PK(h) (compound concentration 0.1 μM) was found to be 99%; in assay [1] (compound concentration 0.1 μM), 88%.
For `C[C@H](Nc1ncnc2[nH]ccc(=O)c12)c1c(Cl)c2cccc(-c3cnn(C4CC4)c3)c2c(=O)n1-c1ccccc1` [Example 96, (S)-4-((1-(4-chloro-8-(1-cyclopropyl-1H-pyrazol-4-yl)-1-oxo-2-phenyl-1,2-dihydroisoquinolin-3-yl)ethyl)amino)pyrido[2,3-d]pyrimidin-5(8H)-one], in that order: 78%, 86%, 100% and 97%.
On to `COc1ncc(-c2cccc3c(Cl)c([C@H](C)Nc4ncnc5[nH]ccc(=O)c45)n(-c4ccccc4)c(=O)c23)cc1C` [Example 197, (S)-4-((1-(4-chloro-8-(6-methoxy-5-methylpyridin-3-yl)-1-oxo-2-phenyl-1,2-dihydroisoquinolin-3-yl)ethyl)amino)pyrido[2,3-d]pyrimidin-5(8H)-one], for which the inhibition at 0.01 µM on DNA-PK(h) (compound concentration 0.01 μM) turned out to be 61%; in assay [1] (compound concentration 0.01 μM) it was 91%.
Take `COc1ccccc1Oc1cccc2c(Cl)c([C@H](C)Nc3ncnc4[nH]ccc(=O)c34)n(-c3ccccc3)c(=O)c12` [Example 366, (S)-4-((1-(4-chloro-8-(2-methoxyphenoxy)-1-oxo-2-phenyl-1,2-dihydroisoquinolin-3-yl)ethyl)amino)pyrido[2,3-d]pyrimidin-5(8H)-one]: the inhibition at 0.01 µM on DNA-PK(h) (compound concentration 0.01 μM) stood at 23%; in assay [1] (compound concentration 0.01 μM), 41%. Further, the inhibition at 0.1 µM worked out at 69% at DNA-PK(h) (compound concentration 0.1 μM) and 85% in assay [1] (compound concentration 0.1 μM).
With `C[C@H](Nc1ncnc2[nH]ccc(=O)c12)c1c(Cl)c2cccc(-c3cccc4cn[nH]c34)c2c(=O)n1-c1ccccc1` [Example 239, (S)-4-((1-(4-chloro-8-(1H-indazol-7-yl)-1-oxo-2-phenyl-1,2-dihydroisoquinolin-3-yl)ethyl)amino)pyrido[2,3-d]pyrimidin-5(8H)-one], the values for the inhibition at 0.01 µM (at DNA-PK(h) (compound concentration 0.01 μM); in assay [1] (compound concentration 0.01 μM)) were 10% and 38%, respectively.
On to `C[C@H](Nc1ncnc2[nH]ccc(=O)c12)c1c(Cl)c2cccc(C#Cc3cccs3)c2c(=O)n1-c1ccccc1` [Example 304, (S)-4-((1-(4-chloro-1-oxo-2-phenyl-8-(thiophen-2-ylethynyl)-1,2-dihydroisoquinolin-3-yl)ethyl)amino)pyrido[2,3-d]pyrimidin-5(8H)-one], for which the figures for the inhibition at 0.01 µM (at DNA-PK(h) (compound concentration 0.01 μM); in assay [1] (compound concentration 0.01 μM)) were 27% and 71%, respectively. In addition, the inhibition at 0.1 µM on DNA-PK(h) (compound concentration 0.1 μM) turned out to be 71%; in assay [1] (compound concentration 0.1 μM), 101%.
Turning to `C[C@H](Nc1ncnc2[nH]ccc(=O)c12)c1c(Cl)c2cccc(-c3ccc(OCC4CC4)nc3)c2c(=O)n1-c1ccccc1` [Example 163, (S)-4-((1-(4-chloro-8-(6-(cyclopropylmethoxy)pyridin-3-yl)-1-oxo-2-phenyl-1,2-dihydroisoquinolin-3-yl)ethyl)amino)pyrido[2,3-d]pyrimidin-5(8H)-one], the inhibition at 0.01 µM was 45% on DNA-PK(h) (compound concentration 0.01 μM) and 70% in assay [1] (compound concentration 0.01 μM).
For `CC(C)NC(=O)c1ccc(-c2cccc3c(Cl)c([C@H](C)Nc4ncnc5[nH]ccc(=O)c45)n(-c4ccccc4)c(=O)c23)cc1` [Example 193, (S)-4-(4-chloro-1-oxo-3-(1-((5-oxo-5,8-dihydropyrido[2,3-d]pyrimidin-4-yl)amino)ethyl)-2-phenyl-1,2-dihydroisoquinolin-8-yl)-N-isopropylbenzamide], the inhibition at 0.01 µM at DNA-PK(h) (compound concentration 0.01 μM) worked out at 71%; in assay [1] (compound concentration 0.01 μM), 72%.
For `C[C@H](Nc1ncnc2[nH]ccc(=O)c12)c1c(Cl)c2cccc(-c3ccc(-c4noc(C(C)(C)C)n4)cc3)c2c(=O)n1-c1ccccc1` [Example 161, (S)-4-((1-(8-(4-(5-(tert-butyl)-1,2,4-oxadiazol-3-yl)phenyl)-4-chloro-1-oxo-2-phenyl-1,2-dihydroisoquinolin-3-yl)ethyl)amino)pyrido[2,3-d]pyrimidin-5(8H)-one], in that order: 7% and 24%.
In the case of `C[C@H](O)c1cccc2c(Cl)c([C@H](C)Nc3ncnc4[nH]ccc(=O)c34)n(-c3ccccc3)c(=O)c12` [Example 441, 4-(((S)-1-(4-chloro-8-((S)-1-hydroxyethyl)-1-oxo-2-phenyl-1,2-dihydroisoquinolin-3-yl)ethyl)amino)pyrido[2,3-d]pyrimidin-5(8H)-one], the inhibition at 0.01 µM was found to be 35% on DNA-PK(h) (compound at 0.01 μM) and 54% in assay [1] (compound at 0.01 μM).
Turning to `C[C@H](Nc1ncnc2[nH]ccc(=O)c12)c1c(Cl)c2cccc(S(C)(=N)=O)c2c(=O)n1-c1ccccc1` (stereo partly drawn) [Example 425, 4-(((1S)-1-(4-chloro-8-(S-methylsulfonimidoyl)-1-oxo-2-phenyl-1,2-dihydroisoquinolin-3-yl)ethyl)amino)pyrido[2,3-d]pyrimidin-5(8H)-one], the inhibition at 0.1 µM on DNA-PK(h) (compound at 0.1 μM) turned out to be 16%; in assay [1] (compound at 0.1 μM), 86%.
On to `CSc1ncc(-c2cccc3c(Cl)c([C@H](C)Nc4ncnc5[nH]ccc(=O)c45)n(-c4ccccc4)c(=O)c23)cn1` [Example 214, (S)-4-((1-(4-chloro-8-(2-(methylthio)pyrimidin-5-yl)-1-oxo-2-phenyl-1,2-dihydroisoquinolin-3-yl)ethyl)amino)pyrido[2,3-d]pyrimidin-5(8H)-one], for which the results for the inhibition at 0.01 µM (on DNA-PK(h) (compound concentration 0.01 μM); in assay [1] (compound concentration 0.01 μM)) were 70% and 99%, respectively.
As for `Cc1ccc(-c2cccc3c(Cl)c([C@H](C)Nc4ncnc5[nH]ccc(=O)c45)n(-c4ccccc4)c(=O)c23)cc1` [Example 255, (S)-4-((1-(4-chloro-1-oxo-2-phenyl-8-(p-tolyl)-1,2-dihydroisoquinolin-3-yl)ethyl)amino)pyrido[2,3-d]pyrimidin-5(8H)-one], the inhibition at 0.01 µM on DNA-PK(h) (compound concentration 0.01 μM) was 15.6%; in assay [1] (compound concentration 0.01 μM), 25.1%. Moreover, the figures for the inhibition at 0.1 µM (on DNA-PK(h) (compound concentration 0.1 μM); in assay [1] (compound concentration 0.1 μM)) were 73.6% and 50.9%, respectively.
On to `C[C@H](Nc1ncnc2[nH]ccc(=O)c12)c1c(Cl)c2cccc(SC3COC3)c2c(=O)n1-c1ccccc1` [Example 418, (S)-4-((1-(4-chloro-8-(oxetan-3-ylthio)-1-oxo-2-phenyl-1,2-dihydroisoquinolin-3-yl)ethyl)amino)pyrido[2,3-d]pyrimidin-5(8H)-one], for which the values for the inhibition at 0.1 µM (on DNA-PK(h) (compound at 0.1 μM); in assay [1] (compound at 0.1 μM)) were 29% and 1%, respectively.
For `C[C@H](Nc1ncnc2[nH]ccc(=O)c12)c1c(Cl)c2cccc(-c3cnc(N4CCOCC4)nc3)c2c(=O)n1-c1ccccc1` [Example 174, (S)-4-((1-(4-chloro-8-(2-morpholinopyrimidin-5-yl)-1-oxo-2-phenyl-1,2-dihydroisoquinolin-3-yl)ethyl)amino)pyrido[2,3-d]pyrimidin-5(8H)-one], the figures for the inhibition at 0.01 µM (on DNA-PK(h) (compound concentration 0.01 μM); in assay [1] (compound concentration 0.01 μM)) were 67% and 65%, respectively.
For `Cc1ccc(-c2cccc3c(Cl)c([C@H](C)Nc4ncnc5[nH]ccc(=O)c45)n(-c4ccccc4)c(=O)c23)c(C)n1` [Example 248, (S)-4-((1-(4-chloro-8-(2,6-dimethylpyridin-3-yl)-1-oxo-2-phenyl-1,2-dihydroisoquinolin-3-yl)ethyl)amino)pyrido[2,3-d]pyrimidin-5(8H)-one], in that order: 66% and 99%.

The term inhibition denotes the relative decrease from the control value, in per cent.

The values are drawn from patent US20230072683A1, “PYRIDO-PYRIMIDIN DERIVATIVES AND PHARMACEUTICAL COMPOSITION, FOR USE IN PREVENTING OR TREATING PI3 KINASE RELATED DISEASES, COMPRISING SAME AS ACTIVE INGREDIENT” (BORYUNG PHARMACEUTICAL CO., LTD, priority 2019, published 2023).
